Measurements: ChEMBL document CHEMBL1131520, “A novel (benzodifuranyl)aminoalkane with extremely potent activity at the 5-HT2A receptor” (J Med Chem, 1998)

What was measured:
[1] = biological target: 5-hydroxytryptamine receptor 2A (Rattus norvegicus, UniProt P14842); experiment: […] measured for 5-hydroxytryptamine 2A receptor using [3H]-MDL- 100,907 as radioligand in rat cortical homogenates.; type: tissue-based
Rattus norvegicus [2] = species: Rattus norvegicus; experiment: Drug discrimination studies in rats(12) expressed as ED50 value; type: functional
[3] = biological target: 5-hydroxytryptamine receptor 2B (Homo sapiens, UniProt P41595); experiment: Binding activity against cloned human 5-hydroxytryptamine 2B receptor using [3H]5-HT as the radioligand.
Chain of 5-hydroxytryptamine receptor 2B (P41595 whole entry): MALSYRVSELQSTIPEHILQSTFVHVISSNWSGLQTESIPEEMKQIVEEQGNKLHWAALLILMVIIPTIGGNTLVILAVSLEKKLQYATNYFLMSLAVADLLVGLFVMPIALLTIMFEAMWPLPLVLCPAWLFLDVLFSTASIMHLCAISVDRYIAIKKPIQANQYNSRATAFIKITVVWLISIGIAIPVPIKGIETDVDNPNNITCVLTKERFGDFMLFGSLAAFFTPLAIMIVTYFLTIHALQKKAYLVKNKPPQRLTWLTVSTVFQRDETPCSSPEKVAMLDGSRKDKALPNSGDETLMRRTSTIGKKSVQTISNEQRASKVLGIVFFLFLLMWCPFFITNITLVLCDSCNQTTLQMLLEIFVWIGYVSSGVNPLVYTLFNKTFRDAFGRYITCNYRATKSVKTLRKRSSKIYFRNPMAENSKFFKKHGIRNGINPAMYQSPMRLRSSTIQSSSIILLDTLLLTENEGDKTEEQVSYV

[4] = biological target: T1, 5-hydroxytryptamine receptor 2C (Homo sapiens, UniProt P28335); experiment: Binding activity against cloned human 5-hydroxytryptamine 2C receptor using [125I]DOI as the radioligand.
T1 sequence (P28335 whole entry): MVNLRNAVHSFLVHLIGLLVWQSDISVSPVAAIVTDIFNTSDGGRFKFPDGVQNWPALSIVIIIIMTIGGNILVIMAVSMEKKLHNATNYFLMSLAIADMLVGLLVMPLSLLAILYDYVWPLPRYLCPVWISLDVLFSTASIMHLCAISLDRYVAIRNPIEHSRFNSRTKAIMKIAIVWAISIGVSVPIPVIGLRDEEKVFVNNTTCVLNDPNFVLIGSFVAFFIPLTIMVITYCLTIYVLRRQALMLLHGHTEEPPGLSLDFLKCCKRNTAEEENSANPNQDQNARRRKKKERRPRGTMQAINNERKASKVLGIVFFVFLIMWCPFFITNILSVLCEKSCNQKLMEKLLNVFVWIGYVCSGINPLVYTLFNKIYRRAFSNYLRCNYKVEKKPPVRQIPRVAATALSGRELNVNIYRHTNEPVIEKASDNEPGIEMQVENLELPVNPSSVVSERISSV

Rattus norvegicus [5] = species: Rattus norvegicus; experiment: Drug discrimination studies in rats(7-15) expressed as ED50 value; type: functional
[6] = biological target: 5-hydroxytryptamine receptor 2A (Homo sapiens, UniProt P28223); experiment: Binding activity against cloned human 5-hydroxytryptamine 2A receptor using [125I]DOI as the radioligand.
Chain of 5-hydroxytryptamine receptor 2A (Homo sapiens, UniProt P28223) (P28223 whole entry): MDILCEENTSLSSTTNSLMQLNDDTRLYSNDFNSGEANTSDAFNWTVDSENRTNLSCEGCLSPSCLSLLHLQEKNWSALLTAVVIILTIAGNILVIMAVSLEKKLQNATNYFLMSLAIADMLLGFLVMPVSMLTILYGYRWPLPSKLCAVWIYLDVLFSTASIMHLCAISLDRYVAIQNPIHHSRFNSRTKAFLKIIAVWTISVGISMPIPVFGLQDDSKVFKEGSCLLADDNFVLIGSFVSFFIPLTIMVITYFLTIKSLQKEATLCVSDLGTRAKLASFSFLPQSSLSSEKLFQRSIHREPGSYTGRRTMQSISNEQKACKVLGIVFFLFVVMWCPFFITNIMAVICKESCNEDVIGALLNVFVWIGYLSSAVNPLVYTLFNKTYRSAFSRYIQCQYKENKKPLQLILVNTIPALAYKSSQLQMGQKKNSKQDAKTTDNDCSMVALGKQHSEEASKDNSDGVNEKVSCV

Rattus norvegicus [7] = species: Rattus norvegicus; experiment: Drug discrimination studies in rats(16-19) expressed as ED50 value; type: functional
Rattus norvegicus [8] = species: Rattus norvegicus; experiment: Drug discrimination studies in rats(9-12) expressed as ED50 value; type: functional
Rattus norvegicus [9] = species: Rattus norvegicus; experiment: Drug discrimination studies in rats(22) expressed as ED50 values; type: functional

Chain of 5-hydroxytryptamine receptor 2A (Rattus norvegicus, UniProt P14842) (P14842 whole entry): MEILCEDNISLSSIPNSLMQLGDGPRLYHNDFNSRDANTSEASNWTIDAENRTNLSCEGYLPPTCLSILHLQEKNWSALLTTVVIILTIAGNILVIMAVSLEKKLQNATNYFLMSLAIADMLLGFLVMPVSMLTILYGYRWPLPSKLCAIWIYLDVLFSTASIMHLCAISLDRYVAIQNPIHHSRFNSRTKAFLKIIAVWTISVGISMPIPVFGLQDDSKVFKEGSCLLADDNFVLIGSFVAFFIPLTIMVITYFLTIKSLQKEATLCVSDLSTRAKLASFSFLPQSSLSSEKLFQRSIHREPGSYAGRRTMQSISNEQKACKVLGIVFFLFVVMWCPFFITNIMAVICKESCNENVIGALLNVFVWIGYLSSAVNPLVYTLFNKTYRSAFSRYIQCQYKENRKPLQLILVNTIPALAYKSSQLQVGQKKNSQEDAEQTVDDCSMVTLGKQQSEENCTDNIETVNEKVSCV

| SMILES | Ki [1] [nM] | Ki [3] [nM] | Ki [4] [nM] | other results |
| --- | --- | --- | --- | --- |
| CC(N)Cc1c2c(c(Br)c3c1OCC3)OCC2 (configuration not stated) | 14.8 | – | – | – |
| CC(N)Cc1c2ccoc2c(Br)c2ccoc12 (configuration not stated) | 0.23 | – | – | – |
| COc1cc(CC(C)N)c(OC)cc1I (configuration not stated) | – | 42.7 | 1.82 | ED50 (Rattus norvegicus [2]): 0.3 µmol/kg |
| CC(N)Cc1c2c(c(Br)c3c1OCC3)OCC2 (racemic) | – | – | – | ED50 (Rattus norvegicus [5]): 0.061 µmol/kg |
| CC(N)Cc1c2ccoc2c(Br)c2ccoc12 (racemic) | – | 0.19 | 0.02 | Ki [6]: 0.04 nM; ED50 (Rattus norvegicus [7]): 0.022 µmol/kg; ED50 (Rattus norvegicus [8]): 0.039 µmol/kg |
| CCN(CC)C(=O)[C@@H]1C=C2c3cccc4[nH]cc(c34)C[C@H]2N(C)C1 [LYSERGIDE] | – | – | – | ED50 (Rattus norvegicus [9]): 0.04 µmol/kg |
